Measurements published in patent publication US20080153917A1, “Sigma Receptor Ligands” (UCB PHARMA, S.A., priority 2004, published 2008).
Structures can show the parent of a compound that is named as a salt.

Test system: MK801-induced short term/working memory deficits
Assay: spontaneous alternation task (Y-shaped maze), short term/working memory
Assay type: in vivo
Settings: male mice, 8 minutes in maze; normal mice 65-70 %
Source text: The effect of claimed compounds has been evaluated in an animal model of short term/working memory, namely the spontaneous alternation task. The test system consisted of a symmetrical Y-shaped maze. […] Claimed compounds were able to prevent this deficit after systemic administration.
With C[C@]12N[C@H](Cc3ccccc31)c1ccccc12 [MK801] the “% spontaneous alternation” value was “decreased percentage of spontaneous alternation”.

Test system: not given
Assay: not given
Settings: not given
CCOC(=O)C1CCN(C2CCN(C(=O)C(c3ccccc3)C3CCCC3)CC2)CC1 (centres unmarked) (as salt: HCl) [Compound 40, ethyl 1′-[cyclopentyl(phenyl)acetyl]-1,4′-bipiperidine-4-carboxylate] showed a melting point of 88 °C.
With O=C(C(c1ccccc1)C1CCCC1)N1CCC(N2CCCCC2)CC1 (centres unmarked) (as salt: HCl) [Compound 24, 1′-[cyclopentyl(phenyl)acetyl]-1,4′-bipiperidine] the melting point was 112 °C.
O=C(NCCN1CCN(Cc2ccccc2)CC1)[C@@H]1C[C@H]1c1ccccc1 (relative stereo) (as salt: HCl) [Compound 7, Trans-N-[2-(4-benzyl-1-piperazinyl)ethyl]-2-phenylcyclopropanecarboxamide] gave a melting point of 195 °C.
With O=C(NCCCN1CCN(Cc2c(F)cccc2Cl)CC1)[C@@H]1C[C@H]1c1ccccc1 (relative stereo) (as salt: HCl) [Compound 5, Trans-N-{3-[4-(2-chloro-6-fluorobenzyl)-1-piperazinyl]propyl}-2-phenylcyclopropanecarboxamide] the melting point was 145 °C.
With NCCNC(=O)C(c1ccccc1)C1CCCC1 (centres unmarked) (as salt: HCl) [Compound 22, N-(2-aminoethyl)-2-cyclopentyl-2-phenylacetamide] the melting point was 290 °C.
In the case of O=C(C(c1ccc(Cl)cc1)C1CCCC1)N1CCC(N2CCCCC2)CC1 (centres unmarked) (as salt: HCl) [Compound 27, 1′-[(4-chlorophenyl)(cyclopentyl)acetyl]-1,4′-bipiperidine], the melting point is reported as 105 °C.
Compound O=C(C(c1ccccc1)C1CCCC1)N1CCC(N2CCOCC2)CC1 (centres unmarked) (as salt: Na) [Compound 36, 4-{1-[cyclopentyl(phenyl)acetyl]-4-piperidinyl}morpholine] has a melting point of 111.8 °C.
Work on O=C(C(c1ccc(Cl)c(Cl)c1)C1CCCC1)N1CCC(N2CCCCC2)CC1 (centres unmarked) (as salt: HCl) [Compound 25, 1′-[cyclopentyl(3,4-dichlorophenyl)acetyl]-1,4′-bipiperidine] yielded a melting point of 230 °C.
For CCNCCNC(=O)C(c1ccccc1)C1CCCC1 (centres unmarked) (as salt: HCl) [Compound 18, 2-cyclopentyl-N-[2-(ethylamino)ethyl]-2-phenylacetamide], the melting point was 131 °C.
In the case of CCN(CC)CCNC(=O)C(c1ccccc1)C1CCCC1 (single isomer, unassigned; (+)) (as salt: HCl) [Compound 50, (+)2-cyclopentyl-N-[2-(diethylamino)ethyl]-2-phenylacetamide], the melting point is reported as 144 °C.
O=C(NCCN1CCN(Cc2ccc(Cl)c(Cl)c2)CC1)[C@@H]1C[C@H]1c1ccccc1 (relative stereo) (as salt: HCl) [Compound 10, Trans-N-{2-[4-(3,4-dichlorobenzyl)-1-piperazinyl]ethyl}-2-phenylcyclopropanecarboxamide] gave a melting point of 145 °C.
In the case of O=C(NCCCN1CCN(Cc2c(F)cccc2Cl)CC1)C(c1ccccc1)C1CCCC1 (centres unmarked) (as salt: HCl) [Compound 34, N-{3-[4-(2-chloro-6-fluorobenzyl)-1-piperazinyl]propyl}-2-cyclopentyl-2-phenylacetamide], the melting point is reported as 148 °C.
In the case of CC(C)N1CCN(C2CCN(C(=O)C(c3ccccc3)C3CCCC3)CC2)CC1 (centres unmarked) (as salt: Na) [Compound 38, 1-{1-[cyclopentyl(phenyl)acetyl]-4-piperidinyl}-4-isopropylpiperazine], the melting point is reported as 109.6 °C.
Compound CN(C)[C@H]1CCN(C(=O)C(c2ccccc2)C2CCCC2)C1 (stereo partly drawn) (as salt: Na) [Compound 42, (3S)-1-[cyclopentyl(phenyl)acetyl]-N,N-dimethyl-3-pyrrolidinamine] has a melting point of 68 °C.
O=C(NCCN1CCN(C(=O)c2c(F)cccc2Cl)CC1)[C@@H]1C[C@H]1c1ccccc1 (relative stereo) (as salt: HCl) [Compound 9, Trans-N-{2-[4-(2-chloro-6-fluorobenzoyl)-1-piperazinyl]ethyl}-2-phenylcyclopropanecarboxamide] showed a melting point of 122 °C.
In the case of CCN(CC)CCNC(=O)C(c1ccc(F)cc1)C1CCCC1 (centres unmarked) (as salt: HCl) [Compound 21, 2-cyclopentyl-N-[2-(diethylamino)ethyl]-2-(4-fluorophenyl)acetamide], the melting point is reported as 45 °C.
In the case of CCN(CC)CCNC(=O)C(c1ccccc1)C1CCCC1 (single isomer, unassigned; (-)) (as salt: HCl) [Compound 51, (−)2-cyclopentyl-N-[2-(diethylamino)ethyl]-2-phenylacetamide], the melting point is reported as 146 °C.
CCN(CC)C1CCN(C(=O)C(c2ccccc2)C2CCCC2)CC1 (centres unmarked) (as salt: HCl) [Compound 37, N-{1-[cyclopentyl(phenyl)acetyl]-4-piperidinyl}-N,N-diethylamine] gave a melting point of 79 °C.
CC1CCCCN1CCCNC(=O)C(c1ccccc1)C1CCCC1 (centres unmarked) (as salt: HCl) [Compound 14, 2-cyclopentyl-N-[3-(2-methyl-1-piperidinyl)propyl]-2-phenylacetamide] showed a melting point of 69 °C.
CCN(CC)CCNC(=O)C(c1ccccc1)C1CCCC1 (centres unmarked) (as salt: HCl) [Compound 15, 2-cyclopentyl-N-[2-(diethylamino)ethyl]-2-phenylacetamide] showed a melting point of 129 °C.
For O=C(C(c1ccccc1)C1CCCC1)N1CCC(N2CCC(O)CC2)CC1 (centres unmarked) (as salt: HCl) [Compound 41, 1′-[cyclopentyl(phenyl)acetyl]-1,4′-bipiperidin-4-ol], the melting point was 90 °C.
In the case of O=C(NCCCN1CCOCC1)C(c1ccccc1)C1CCCC1 (centres unmarked) (as salt: HCl) [Compound 32, 2-cyclopentyl-N-[3-(4-morpholinyl)propyl]-2-phenylacetamide], the melting point is reported as 145 °C.
